Our source for the EC50 values is patent US10351576B2, “Fused tricyclic pyrazole derivatives useful for farnesoid X receptors” (NOVARTIS AG, priority 2015, dated 2019).

This assay addresses T1, human Farnesoid X Receptor (FXR) ligand binding domain (GST-FXR LBD) (Homo sapiens, UniProt Q96RI1).
T1 construct: purchased Invitrogen
T1 sequence (Q96RI1 193-472 isoform Q96RI1-2): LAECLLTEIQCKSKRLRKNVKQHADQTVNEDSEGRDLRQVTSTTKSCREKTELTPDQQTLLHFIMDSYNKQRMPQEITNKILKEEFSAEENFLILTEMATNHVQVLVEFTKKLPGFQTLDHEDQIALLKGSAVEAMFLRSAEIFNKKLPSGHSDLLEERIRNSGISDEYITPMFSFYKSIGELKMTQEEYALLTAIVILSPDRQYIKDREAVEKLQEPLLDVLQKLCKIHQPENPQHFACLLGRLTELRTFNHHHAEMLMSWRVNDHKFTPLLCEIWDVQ
As to the kind of experiment: Human GST-FXR LBD co-activator interaction assay (FXR HTRF assay). The format is biochemical. The following applies: ligand-dependent interaction of GST-FXR LBD with biotin-labeled SRC-1 peptide, response relative to GW4064, read-out: FXR coactivator interaction assay (HTRF). An excerpt: Human GST-FXR LBD Co-Activator Interaction Assay
The FXR HTRF assay is a biochemical assay measuring the interaction between FXR and a coactivator protein (SRC1). The ligand-induced interaction with a coactivator protein is a critical step in transcriptional activation by FXR. Thus, this is an assay designed to measure FXR agonist activity of the test compounds.
Recombinant human Farnesoid X Receptor (FXR) ligand binding domain (amino acids 193-472) fused to glutathione S-transferase (GST) purified protein (GST-FXR LBD) was purchased (Invitrogen). The ligand-dependent interaction between GST-FXR LBD and a peptide derived from Steroid Receptor Coactivator-1 (SRC-1) was monitored by Fluorescence Resonance Energy Transfer (FRET). […] Test compounds (in DMSO solution) and detection reagents (anti-GST-Cryptate labeled antibody and Streptavidin-XL665 conjugate; CisBio) were added in assay buffer containing 50 mM KF. Plates are incubated at room temperature in the dark for 2.5 hrs before reading on an Envision (PerkinElmer) at 665 nm and 590 nm. The HTRF assay results were calculated from the 665 nm/590 nm ratio (ratio=(A665 nm/A590 nm)×10^4) and expressed in Delta F %=(Ratiosample−Rationegative)/Rationegative×100.
A negative control (without Streptavidin-XL665) was run with each assay and represented the background fluorescence. A reference FXR agonist, (E)-3-(2-chloro-4-((3-(2,6-dichlorophenyl)-5-isopropylisoxazol-4-yl)methoxy)styryl)benzoic acid (Compound GW4064), was included in each experiment as positive control. The efficacy of each test compound was compared to that of GW4064. At each concentration, the relative activity of the test compound was expressed as Response %=(Rsample−RDMSO)/(Rpositive−RDMSO), where Rsample is the HTRF response (expressed in Delta F %) for the test compound, Rpositive is the maximal response for GW4064 at saturating concentrations, and RDMSO is the response for DMSO control. The EC50 values were calculated using GraphPad Prism (GraphPad Software) using non-linear regression curve fit (log(agonist) vs. response—variable slope (four parameters)).
In the case of `Cn1nc(C(=O)N(CC(=O)NCC2CC2)Cc2cccc(F)c2)c2c1-c1cc(Cl)ccc1OC2` [Compound 1, 8-chloro-N-(2-((cyclopropylmethyl)amino)-2-oxoethyl)-N-(3-fluorobenzyl)-1-methyl-1,4-dihydrochromeno[4,3-c]pyrazole-3-carboxamide], the EC50 worked out at 2 nM. Consider `Cn1nc(C(=O)N(CC(=O)NCCC(F)(F)F)Cc2cccc(F)c2)c2c1-c1cc(Cl)ccc1OC2` [Compound 2, 2-(1-{8-chloro-1-methyl-1H,4H-chromeno[4,3-c]pyrazol-3-yl}-N-[(3-fluorophenyl)methyl]formamido)-N-(3,3,3-trifluoropropyl)acetamide], for which the EC50 was found to be 3 nM.

In the case of `Cn1nc(C(=O)N(CC(=O)NCC2CC2)Cc2ccccc2F)c2c1-c1cc(Cl)ccc1OC2` [Compound 3, 2-(1-{8-chloro-1-methyl-1H,4H-chromeno[4,3-c]pyrazol-3-yl}-N-[(2-fluorophenyl)methyl]formamido)-N-(cyclopropylmethyl)acetamide], the EC50 turned out to be 1 nM.

Take `Cn1nc(C(=O)N(CC(=O)NCCC(F)(F)F)Cc2ccccc2F)c2c1-c1cc(Cl)ccc1OC2` [Compound 4, 2-(1-{8-chloro-1-methyl-1H,4H-chromeno[4,3-c]pyrazol-3-yl}-N-[(2-fluorophenyl)methyl]formamido)-N-(3,3,3-trifluoropropyl)acetamide]: the EC50 worked out at 11 nM. Take `Cn1nc(C(=O)N(CC(=O)NCC2CC2)Cc2c(F)cccc2F)c2c1-c1cc(Cl)ccc1OC2` [Compound 5, 2-(1-{8-chloro-1-methyl-1H,4H-chromeno[4,3-c]pyrazol-3-yl}-N-[(2,6-difluorophenyl)methyl]formamido)-N-(cyclopropylmethyl)acetamide]: the EC50 was 13 nM. Take `Cn1nc(C(=O)N(CC(=O)NCC2CC2)Cc2cccc(F)c2F)c2c1-c1cc(Cl)ccc1OC2` [Compound 6, 2-(1-{8-chloro-1-methyl-1H,4H-chromeno[4,3-c]pyrazol-3-yl}-N-[(2,3-difluorophenyl)methyl]formamido)-N-(cyclopropylmethyl) acetamide]: the EC50 amounted to 12 nM. Take `Cn1nc(C(=O)N(CC(=O)NCC2CCOC2)Cc2ccccc2F)c2c1-c1cc(Cl)ccc1OC2` (stereo not drawn) [Compound 7, 2-(1-{8-chloro-1-methyl-1H,4H-chromeno[4,3-c]pyrazol-3-yl}-N-[(2-fluorophenyl)methyl]formamido)-N-(oxolan-3-ylmethyl) acetamide]: the EC50 was 18 nM. `Cn1nc(C(=O)N(CC(=O)NC2CC2)Cc2ccccc2F)c2c1-c1cc(Cl)ccc1OC2` [Compound 8, 2-(1-{8-chloro-1-methyl-1H,4H-chromeno[4,3-c]pyrazol-3-yl}-N-[(2-fluorophenyl)methyl]formamido)-N-cyclopropylacetamide]: the EC50 was found to be 31 nM. Then `Cn1nc(C(=O)N(CC(=O)NCCF)Cc2cccc(F)c2)c2c1-c1cc(Cl)ccc1OC2` [Compound 9, 2-(1-{8-chloro-1-methyl-1H,4H-chromeno[4,3-c]pyrazol-3-yl}-N-[(3-fluorophenyl)methyl]formamido)-N-(2-fluoroethyl)acetamide], with 3 nM; and `Cn1nc(C(=O)N(CC(=O)NC2CC2(F)F)Cc2cccc(F)c2)c2c1-c1cc(Cl)ccc1OC2` (stereo not drawn) [Compound 10, 2-(1-{8-chloro-1-methyl-1H,4H-chromeno[4,3-c]pyrazol-3-yl}-N-[(3-fluorophenyl)methyl]formamido)-N-(2,2-difluorocyclopropyl)acetamide], with 21 nM. Then `Cn1nc(C(=O)N(CC(=O)NCCF)Cc2ccccc2F)c2c1-c1cc(Cl)ccc1OC2` [Compound 11, 2-(1-{8-chloro-1-methyl-1H,4H-chromeno[4,3-c]pyrazol-3-yl}-N-[(2-fluorophenyl)methyl]formamido)-N-(2-fluoroethyl)acetamide], with 13 nM; and `Cn1nc(C(=O)N(CC(=O)NC2CCC2)Cc2cccc(F)c2)c2c1-c1cc(Cl)ccc1OC2` [Compound 12, 2-(1-{8-chloro-1-methyl-1H,4H-chromeno[4,3-c]pyrazol-3-yl}-N-[(3-fluorophenyl)methyl]formamido)-N-cyclobutylacetamide], with 14 nM. With `CC(C)NC(=O)CN(Cc1cc(F)cc(F)c1)C(=O)c1nn(C)c2c1COc1ccc(Br)cc1-2` [Compound 13, 2-(1-{8-bromo-1-methyl-1H,4H-chromeno[4,3-c]pyrazol-3-yl}-N-[(3,5-difluorophenyl)methyl]formamido)-N-(propan-2-yl)acetamide], the EC50 was 34 nM. Consider `Cn1nc(C(=O)N(CC(=O)NC(C)(C)C)Cc2cccc(F)c2)c2c1-c1cc(Cl)ccc1OC2` [Compound 14, N-tert-butyl-2-(1-{8-chloro-1-methyl-1H,4H-chromeno[4,3-c]pyrazol-3-yl}-N-[(3-fluorophenyl)methyl]formamido)acetamide], for which the EC50 is 58 nM. With `CC(C)NC(=O)CN(Cc1cccc(F)c1)C(=O)c1nn(C)c2c1COc1ccc(Cl)cc1-2` [Compound 15, 2-(1-{8-chloro-1-methyl-1H,4H-chromeno[4,3-c]pyrazol-3-yl}-N-[(3-fluorophenyl)methyl]formamido)-N-(propan-2-yl)acetamide], the EC50 was found to be 27 nM. Then `CC(C)NC(=O)CN(Cc1cc(F)ccc1F)C(=O)c1nn(C)c2c1COc1ccc(Br)cc1-2` [Compound 16, 2-(1-{8-bromo-1-methyl-1H,4H-chromeno[4,3-c]pyrazol-3-yl}-N-[(2,5-difluorophenyl)methyl]formamido)-N-(propan-2-yl)acetamide], with 49 nM; and `CCNC(=O)CN(Cc1ccccc1F)C(=O)c1nn(C)c2c1COc1ccc(Cl)cc1-2` [Compound 17, 2-(1-{8-chloro-1-methyl-1H,4H-chromeno[4,3-c]pyrazol-3-yl}-N-[(2-fluorophenyl)methyl]formamido)-N-ethylacetamide], with 54 nM. Consider `Cn1nc(C(=O)N(CC(=O)NC2CCCC2)Cc2ccccc2F)c2c1-c1cc(Cl)ccc1OC2` [Compound 18, 2-(1-{8-chloro-1-methyl-1H,4H-chromeno[4,3-c]pyrazol-3-yl}-N-[(2-fluorophenyl)methyl]formamido)-N-cyclopentylacetamide], for which the EC50 came out at 64 nM. As to `Cn1nc(C(=O)N(CC(=O)NC2CCC2)Cc2ccccc2F)c2c1-c1cc(Cl)ccc1OC2` [Compound 19, 2-(1-{8-chloro-1-methyl-1H,4H-chromeno[4,3-c]pyrazol-3-yl}-N-[(2-fluorophenyl)methyl]formamido)-N-cyclobutylacetamide], the EC50 worked out at 49 nM. Regarding `Cn1nc(C(=O)N(CC(=O)Nc2ccc(C(=O)N3CCOCC3)cc2)Cc2ccccc2F)c2c1-c1cc(Cl)ccc1OC2` [Compound 20, 2-(1-{8-chloro-1-methyl-1H,4H-chromeno[4,3-c]pyrazol-3-yl}-N-[(2-fluorophenyl)methyl]formamido)-N-[4-(morpholine-4-carbonyl)phenyl]acetamide], the EC50 came out at 246 nM. Consider `Cn1nc(C(=O)N(CC(=O)NC[C@@H]2CCCO2)Cc2ccccc2F)c2c1-c1cc(Cl)ccc1OC2` [Compound 21, 2-(1-{8-chloro-1-methyl-1H,4H-chromeno[4,3-c]pyrazol-3-yl}-N-[(2-fluorophenyl)methyl]formamido)-N-[(2S)-oxolan-2-ylmethyl]acetamide], for which the EC50 is 160 nM.
